# The source made the active and inactive calls. The rule behind the calls is not given here.
# Tests used:
# Gossypium hirsutum [1] = assay: Phytotoxicity against Gossypium hirsutum (cotton) seedlings assessed as moderate darkening measured under dark conditions at 100 uM; type: functional, organism-based
# Lathyrus oleraceus [2] = assay: Inhibition of Succinate-cytochrome c reductase in Pisum sativum (pea) mitochondrial respiratory-chain electron-transport system at 100 uM
# Gossypium hirsutum [3] = assay: Phytotoxicity against Gossypium hirsutum (cotton) seedlings assessed as cotyledons are damaged with green spots measured under light conditions at 100 uM; type: functional
# Lathyrus oleraceus [4] = assay: Inhibition of Succinate-cytochrome c reductase in Pisum sativum (pea) mitochondrial respiratory-chain electron-transport system at 0.1 uM
# Gossypium hirsutum [5] = assay: Phytotoxicity against Gossypium hirsutum (cotton) seedlings assessed as heavily dark-browning with wrinkling measured under dark conditions at 100 uM; type: functional, organism-based
# Gossypium hirsutum [6] = assay: Phytotoxicity against Gossypium hirsutum (cotton) seedlings assessed as cotyledons are killed but stems are not wilted measured under light conditions at 100 uM; type: functional, organism-based
# Gossypium hirsutum [7] = assay: Phytotoxicity against Gossypium hirsutum (cotton) seedlings assessed as damage measured under dark conditions at 100 uM; type: functional, organism-based
# Gossypium hirsutum [8] = assay: Phytotoxicity against Gossypium hirsutum (cotton) seedlings assessed as complete killing measured under light conditions at 100 uM; type: functional, organism-based
# [9] = Dissociation constant, pKa of the compound; type: physicochemical
# Gossypium hirsutum [10] = assay: Phytotoxicity against Gossypium hirsutum (cotton) seedlings assessed as light darkening measured under dark conditions at 100 uM; type: functional, organism-based
# Gossypium hirsutum [11] = assay: Phytotoxicity against Gossypium hirsutum (cotton) seedlings assessed as cotyledons are killed and stems are partially survived measured under light conditions at 100 uM; type: functional, organism-based
smiles,measurement,setting,value
CC(Cl)/C=C/C(=O)N(Cc1ccc(C(F)(F)F)cc1)CC(C)C (stereo not given),Activity,Gossypium hirsutum [1],Active
same,inhibition,Lathyrus oleraceus [2],1.2%
same,Activity,Gossypium hirsutum [3],10%
CCCCCC[C@H]1C(=O)O[C@H](C)[C@H](NC(=O)c2cccc(NC=O)c2O)C(=O)O[C@@H](C)[C@@H]1OC(=O)CC(C)C,inhibition,Lathyrus oleraceus [4],100%
CC(Br)/C=C/C(=O)N(Cc1ccc(Cl)cc1)CC(C)C (stereo not given),inhibition,Lathyrus oleraceus [2],0%
same,Activity,Gossypium hirsutum [5],Active
same,Activity,Gossypium hirsutum [6],Active
COC(=O)CSc1cc(/N=c2\sc(=O)n3n2CCCC3)c(F)cc1Cl,Activity,Gossypium hirsutum [7],inactive
same,Activity,Gossypium hirsutum [8],Active
O=C1C2=C(CCCC2)C(=O)N1c1ccc(Cl)cc1 [CHLOROPHTHALIUM],pKa,[9],6.43
CC(Cl)/C=C/C(=O)N(Cc1ccc(Cl)cc1)CC(C)C (stereo not given),Activity,Gossypium hirsutum [1],Active
same,inhibition,Lathyrus oleraceus [2],0%
same,Activity,Gossypium hirsutum [6],Active
O=[N+]([O-])c1ccc(Oc2ccc(Cl)cc2Cl)cc1 [NITROFEN],Activity,Gossypium hirsutum [7],inactive
same,Activity,Gossypium hirsutum [3],10%
CC(Cl)/C=C/C(=O)N(Cc1ccc(S(C)(=O)=O)cc1)CC(C)C (stereo not given),Activity,Gossypium hirsutum [10],Active
same,inhibition,Lathyrus oleraceus [2],5.8%
same,Activity,Gossypium hirsutum [3],50%
CC(Cl)/C=C/C(=O)N(Cc1ccc(C#N)cc1)CC(C)C (stereo not given),pKa,[9],4.82
same,inhibition,Lathyrus oleraceus [2],4.6%
same,Activity,Gossypium hirsutum [5],Active
same,Activity,Gossypium hirsutum [8],Active
CCOc1cc(Oc2ccc(C(F)(F)F)cc2Cl)ccc1[N+](=O)[O-] [OXYFLUORFEN],pKa,[9],7.63
CC(C)Oc1cc(-n2nc(C(C)(C)C)oc2=O)c(Cl)cc1Cl,Activity,Gossypium hirsutum [7],inactive
same,Activity,Gossypium hirsutum [11],Active

# Reference: ChEMBL document CHEMBL3046090, “Mechanism of the Phytotoxic Action of Herbicidal N-Isobutyl-N-(4-substituted benzyl)-4-halo-2-pentenamides” (J Pestic Sci, 2002)
